Where two headings read alike, the source gives them in different places.
Experiments:
[1] = Experimental: After combining of pre-weighed amounts of components they were gently triturated at room temperature (20-22° C.) using a stainless steel spatula until liquid phase is formed.
PTZ induced seizures = test: Timed intravenous PTZ infusion test (ivPTZ); format: in vivo, mice
Description: For investigation of anti-seizure activity of invented formulations, a timed intravenous PTZ infusion test was employed.
The technique of timed i.v. PTZ (pentylenetetrazole) infusion test (ivPTZ) is a simple, reproducible and fast method for assessment of onset, peak, duration and potency of various anticonvulsants and proconvulsants in animals. This test provides an extremely sensitive parametric method for assessing seizure threshold in individual animals and a quantifiable endpoint can be obtained with a minimal number of animals. Different seizure types can be chosen as endpoint in this test. Usually, the first seizure occurring during the PTZ infusion is a myoclonic twitch, followed by clonic and, later, tonic seizures.
This method offers many advantages over the more widely used classical subcutaneous PTZ (scPTZ) test. Since with ivPTZ, test effects based on different endpoints are measured in individual animals, the number of animals required for a proper evaluation is much lower than would be needed for standard scPTZ test. […]
During the infusion, mice are observed for the onset of different types of seizures. The time latencies from the start of infusion to the appearance of the first clonus (characterized by rapid involuntary rhythmic contraction and relaxation of limbs), lasting longer than 5 seconds, are recorded. […]

seizures = settings: intranasal, human patients; cited from earlier work

Row | Compound | increase of solubility ([1]; MCT oil + 5% Menthol by weight vs pure MCT oil) | increase of solubility ([1]; MCT with 8% Menthol vs pure MCT oil) | PTZ dose threshold (PTZ induced seizures; intraperitoneal 2.5 mg/kg, 5 minutes time point, infusion 0.3 ml/min, PTZ 10 mg/ml) | time of maximal protection (PTZ induced seizures; parenterally administered) | onset of action (seizures)
1 | O=C1Nc2ccc(Cl)cc2C(c2ccccc2Cl)=NC1O (centres unmarked) [Lorazepam] | 28% | ~60% | 100 to 120 mg/kg | approximately 5 minutes | –
2 | Cc1ncc2n1-c1ccc(Cl)cc1C(c1ccccc1F)=NC2 [Midazolam] | – | – | – | – | approximately 10 minutes

— patent US20160000803A1, “PHARMACEUTICAL COMPOSITION FOR TRANSMUCOSAL ADMINISTRATION OF BENZODIAZEPINES” (EASTGATE PHARMACEUTICALS INC., priority 2013, published 2016)
